Active and inactive are the calls of the source.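 The calls were made as follows: active = fitted curve reaches 40% activation below the top valid tested dose, in every test run; inconclusive = test runs disagree on the call; inactive = the rest, including effects opposite to the expected direction.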
Experiment: endothelial E-selectin upregulation by compounds – imaging, HUVEC, cherry-picked samples, dose response (AID 977605);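 also: signal is the share of imaged cells scored positive for E-selectin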
Conditions: HUVEC E-selectin immunostaining, at 18 µM (top of the series), percent of TNF-alpha response over vehicle

SMILES	activation
CCC(=O)N1CC[C@@H]2[C@H](CO)Nc3ccc(C#Cc4ccc(F)cc4)cc3[C@@H]21	27.2% (inactive)

Same assay, conditions: HUVEC E-selectin immunostaining, at 19.5 µM (top of the series)

SMILES	activation
Cc1ccc(-c2nc3ccccc3c(=O)n2-c2cccc(O)c2)cc1	0.249% (inactive)

Same assay, conditions: HUVEC E-selectin immunostaining, at 19.5 µM (top of the series), percent of TNF-alpha response over vehicle

SMILES	activation
C[C@H](CO)N1C[C@H](C)[C@@H](CN(C)Cc2ccc(C(F)(F)F)cc2)Oc2ccc(NC(=O)CCC(F)(F)F)cc2C1=O	0.441% (inactive)
O=C(NCc1ccc(F)cc1)c1cc(C2CCCCN2C(=O)CCCc2ccccc2)on1 (stereo unspecified)	-0.164% (inactive)
Cc1cccc(CC(=O)Nc2sc(C(C)C)cc2C(=O)N2CCOCC2)c1	0.007% (inactive)
C[C@H]1CN([C@@H](C)CO)C(=O)c2cc(NC(=O)NC3CCCCC3)ccc2O[C@@H]1CN(C)S(=O)(=O)c1ccc(Cl)cc1	2.58% (inactive)
C[C@@H]1CN([C@H](C)CO)C(=O)c2cccc(NC(=O)c3ccncc3)c2O[C@H]1CN(C)S(=O)(=O)c1ccccc1	2.7% (inactive)
C[C@H](CO)N1C[C@H](C)[C@H](CN(C)Cc2ccc(Cl)c(Cl)c2)Oc2c(NC(=O)CCCCCC(=O)Nc3ccccc3N)cccc2C1=O	0.173% (inactive)
COc1ccc(CNS(=O)(=O)c2ccc3c(c2)C(C)(C)C(=O)N3C)cc1	0.021% (inactive)
C[C@H](CO)N1C[C@H](C)[C@H](CN(C)Cc2ccncc2)Oc2c(NC(=O)Nc3ccc(F)cc3)cccc2C1=O	-0.19% (inactive)
C[C@@H]1CN([C@@H](C)CO)C(=O)c2cccc(NS(=O)(=O)c3cn(C)cn3)c2O[C@H]1CN(C)Cc1ccncc1	-0.172% (inactive)
CCc1ccc(C(C(=O)NC2CCCCC2)N(C(=O)c2csnn2)C2CC2)cc1 (stereo unspecified)	-0.021% (inactive)
Cc1noc(C)c1NC(=O)N(C)C[C@H]1Oc2ccc(NS(=O)(=O)c3c(C)noc3C)cc2C(=O)N([C@H](C)CO)C[C@@H]1C	-0.221% (inactive)
COc1ccc(CN(C)C[C@@H]2Oc3ccc(NC(=O)Nc4ccc(F)cc4)cc3CC(=O)N([C@@H](C)CO)C[C@@H]2C)cc1	0.025% (inactive)
CC(C)NC(=O)Nc1cccc2c1O[C@@H](CN(C)Cc1ccc(C(F)(F)F)cc1)[C@@H](C)CN([C@H](C)CO)C2=O	0.009% (inactive)
COc1ccc(OC)c(NC(=O)c2ccc(CSc3ncccn3)cc2)c1	0.128% (inactive)
CN(CC(=O)Nc1ccc(Cl)c(Cl)c1)C1CCCCC1	-0.064% (inactive)
COc1ccccc1NS(=O)(=O)c1c(C)[nH]c(C)c1C(=O)N1CCCC1	13.9% (inactive)
C[C@H]1CN([C@@H](C)CO)C(=O)c2cc(NC(=O)CCCCCC(=O)Nc3ccccc3N)ccc2O[C@H]1CN(C)C(=O)Nc1ccc(F)cc1	0.137% (inactive)
COc1ccc(NC(=O)N(C)C[C@@H]2Oc3c(NS(=O)(=O)c4cn(C)cn4)cccc3C(=O)N([C@@H](C)CO)C[C@H]2C)cc1	-0.199% (inactive)
O=C(O)Cn1cc(C(=O)C(F)(F)F)c2ccccc21	0.43% (inactive)
Cc1ccc(S(=O)(=O)N[C@@H](Cc2ccccc2)C(=O)N2CCC(C(=O)N[C@@H](CCC(N)=O)C(=O)O)CC2)cc1	0.009% (inactive)
CC(C)NC(=O)N(C)C[C@@H]1Oc2ccc(NS(=O)(=O)c3cccs3)cc2CC(=O)N([C@H](C)CO)C[C@@H]1C	1.19% (inactive)

SMILES	activation
CCNC(=O)CC1C(=O)N(c2ccc(OC)cc2)C(=O)N1CCOC (stereo unspecified)	-0.131% (inactive)
COc1ccc(S(=O)(=O)Nc2ccc3c(c2)CC(=O)N([C@H](C)CO)C[C@H](C)[C@@H](CN(C)C(=O)NC2CCCCC2)O3)cc1	-0.163% (inactive)
O=C(COc1ccc(Cl)cc1)NCCCNC(=O)c1cnccn1	0.135% (inactive)
O=C(CCCn1c(=O)c2ccccc2n(CC(=O)N2CCN(c3ccccc3)CC2)c1=O)NCc1ccco1	-0.084% (inactive)
COc1ccc(S(=O)(=O)Nc2ccc3c(c2)CC(=O)N([C@H](C)CO)C[C@H](C)[C@H](CN(C)C(=O)NC2CCCCC2)O3)cc1	-0.057% (inactive)
CCCC#Cc1ccc2c(c1)O[C@H](CN(C)C(C)=O)[C@H](C)CN([C@@H](C)CO)S2(=O)=O	0.607% (inactive)
O=S(=O)(Nc1cccc(S(=O)(=O)N2CCCC2)c1)c1cccs1	2.79% (inactive)
O=C1CC(N2CCSCC2)C(=O)N1c1cccc(Br)c1 (stereo unspecified)	-0.085% (inactive)
CC(C)NC(=O)Nc1ccc2c(c1)CC(=O)N([C@@H](C)CO)C[C@H](C)[C@@H](CN(C)Cc1ccc(C(=O)O)cc1)O2	0.001% (inactive)
COc1ccc(NC(=O)N(C)C[C@H]2Oc3ccc(NC(=O)c4ccncc4)cc3CC(=O)N([C@H](C)CO)C[C@H]2C)cc1	-0.01% (inactive)
O=C(CN(C(=O)c1csnn1)c1ccc2c(c1)OCCO2)NCc1ccc(F)cc1	-0.09% (inactive)
O=C(COC(=O)CCC(=O)c1ccc(F)cc1)Nc1cccc(S(=O)(=O)N2CCCC2)c1	2.61% (inactive)
COc1ccc(CN2CCN(C(=O)c3ccccc3C(=O)c3ccccc3)CC2)cc1OC	0.003% (inactive)
CO[C@@H]1CN(C)C(=O)c2ccc(NC(=O)c3nc4ccccc4s3)cc2OC[C@@H](C)N(Cc2cncnc2)C[C@@H]1C	-0.082% (inactive)
C[C@H]1CN([C@@H](C)CO)C(=O)c2cccc(NC(=O)C3CCOCC3)c2O[C@H]1CN(C)Cc1ccc(Oc2ccccc2)cc1	0.01% (inactive)
C[C@H](CO)N1C[C@H](C)[C@@H](CN(C)C)Oc2cc(C#Cc3ccccc3F)ccc2S1(=O)=O	0.115% (inactive)
COc1ccc(NC(=O)N(C)C[C@@H]2Oc3ccc(NC(=O)c4ccncc4)cc3CC(=O)N([C@@H](C)CO)C[C@H]2C)cc1	-0.088% (inactive)
C[C@@H]1CN([C@@H](C)CO)C(=O)c2cccc(NS(=O)(=O)c3ccc(Cl)cc3)c2O[C@H]1CN(C)C(=O)Nc1ccc2c(c1)OCO2	-0.05% (inactive)
COc1ccc(S(=O)(=O)N(C)C[C@H]2Oc3ccc(NS(=O)(=O)c4c(C)noc4C)cc3C(=O)N([C@@H](C)CO)C[C@H]2C)cc1	0.307% (inactive)
C[C@@H]1CN([C@H](C)CO)C(=O)Cc2cc(NS(=O)(=O)c3ccccc3)ccc2O[C@@H]1CN(C)Cc1ccc(C(F)(F)F)cc1	0.93% (inactive)
C[C@H](CO)N1C[C@H](C)[C@@H](CN(C)C(=O)NC2CCCCC2)Oc2c(NC(=O)Nc3ccc(F)cc3)cccc2C1=O	0.219% (inactive)

SMILES	activation
Cc1cc(C(=O)Nc2ccc(C)c(C)c2)n(-c2ccccc2)n1	0.076% (inactive)
Cc1noc(C)c1NC(=O)Nc1ccc2c(c1)CC(=O)N([C@@H](C)CO)C[C@H](C)[C@@H](CN(C)C(=O)Nc1ccc(F)cc1)O2	-0.02% (inactive)
C[C@@H]1CN([C@H](C)CO)C(=O)c2cccc(NC(=O)C3CC3)c2O[C@@H]1CN(C)Cc1ccccc1	0.474% (inactive)
CCOc1cnc(C(=O)NNC(=O)c2ccccc2Br)o1	0.602% (inactive)
CCN(Cc1ccccc1)S(=O)(=O)c1ccc(OC)c2ncccc12	-0.178% (inactive)
CCC(=O)N(C)C[C@H]1Oc2cc(C3=CCCC3)ccc2S(=O)(=O)N([C@@H](C)CO)C[C@@H]1C	-0.074% (inactive)
O=C(Nc1cccc(C(F)(F)F)c1)c1cc[n+]([O-])cc1	0.066% (inactive)
COc1ccc(S(=O)(=O)NCC(=O)NCc2cc(=O)n(C)c(=O)n2C)cc1F	0.047% (inactive)
COC(=O)C[C@H]1CC[C@H]2[C@@H](COc3ccc(NC(=O)C4CC4)cc3C(=O)N2C)O1	3.57% (inactive)
CCOc1ccc(S(=O)(=O)N2CCC(C(=O)NCc3cccnc3)CC2)cc1	-0.239% (inactive)
COc1ccc(CCNS(=O)(=O)c2ccc3c(c2)NC(=O)CS3)cc1OC	-0.024% (inactive)
C[C@H]1CN([C@@H](C)CO)C(=O)c2cc(Br)cnc2O[C@H]1CN(C)Cc1cccc(F)c1	-0.038% (inactive)
O=C(CN(Cc1ccc(F)cc1)C(=O)CNS(=O)(=O)c1ccc(F)cc1)NCc1ccco1	-0.246% (inactive)
C[C@H]1CN([C@@H](C)CO)C(=O)c2cccc(NS(C)(=O)=O)c2O[C@@H]1CN(C)Cc1ccc(Oc2ccccc2)cc1	0.027% (inactive)
CCc1ccc(N2CC(C(=O)Nc3ccc(F)cc3)CC2=O)cc1 (stereo unspecified)	0.132% (inactive)
COc1ccccc1OCC(=O)Nc1ccc(S(=O)(=O)N2CCN(C)CC2)cc1	-0.127% (inactive)
CN(C)C1(CNC(=O)C2CCN(S(=O)(=O)c3cc(Cl)ccc3Cl)CC2)CCCCC1	-0.207% (inactive)
COc1ccc(NC(=O)N(C)C[C@H]2Oc3ccc(NC(=O)c4ccncc4)cc3CC(=O)N([C@H](C)CO)C[C@@H]2C)cc1	-0.048% (inactive)
Cc1noc(C)c1S(=O)(=O)N(C)C[C@H]1Oc2ccc(NS(C)(=O)=O)cc2CC(=O)N([C@@H](C)CO)C[C@H]1C	0.259% (inactive)
COc1ccc(S(=O)(=O)Nc2ccc3c(c2)C(=O)N([C@H](C)CO)C[C@@H](C)[C@@H](CN(C)Cc2ccc(Cl)c(Cl)c2)O3)cc1	-0.147% (inactive)
CC(C)NC(=O)N(C)C[C@@H]1Oc2c(NC(=O)c3ccc(-c4nccs4)cc3)cccc2C(=O)N([C@@H](C)CO)C[C@H]1C	1.61% (inactive)

Same assay, conditions: HUVEC E-selectin immunostaining, at 21 µM (top of the series), percent of TNF-alpha response over vehicle

SMILES	activation
COc1ccc(S(=O)(=O)N(C)C[C@H]2Oc3ccc(NC(=O)Nc4ccc5c(c4)OCO5)cc3CC(=O)N([C@@H](C)CO)C[C@H]2C)cc1	0.529% (inactive)
CC(C)NC(=O)Nc1cccc2c1O[C@H](CN(C)Cc1ccncc1)[C@@H](C)CN([C@H](C)CO)C2=O	0.115% (inactive)
C[C@@H]1CN([C@@H](C)CO)C(=O)c2cc(NC(=O)Nc3ccc4c(c3)OCO4)ccc2O[C@H]1CN(C)Cc1ccc(-c2ccccc2)cc1	2.77% (inactive)
C[C@H]1CN([C@@H](C)CO)C(=O)Cc2cc(NC(=O)Nc3ccc4c(c3)OCO4)ccc2O[C@@H]1CN(C)C	-0.039% (inactive)
C[C@@H]1CN([C@H](C)CO)C(=O)c2cc(NC(=O)c3ccncc3)ccc2O[C@@H]1CN(C)C(=O)Nc1ccc2c(c1)OCO2	0.64% (inactive)
COc1ccc(CN(C)C[C@H]2Oc3ccc(NC(=O)CCCN(C)C)cc3C(=O)N([C@H](C)CO)C[C@H]2C)cc1	-0.188% (inactive)

— PubChem BioAssay AID977605 (Broad Institute, 2014)
